Results on nine molecules are retold here after ChEMBL document CHEMBL1201862, “PubChem BioAssay data set” (2004).

The structures appear in SMILES notation. The source made the active and inactive calls. Where only a bound is given, the exact number is not on record here.

The target in one experiment is T1, Hexokinase HKDC1 (Homo sapiens, UniProt Q2TB90).
T1 sequence (Q2TB90 whole entry): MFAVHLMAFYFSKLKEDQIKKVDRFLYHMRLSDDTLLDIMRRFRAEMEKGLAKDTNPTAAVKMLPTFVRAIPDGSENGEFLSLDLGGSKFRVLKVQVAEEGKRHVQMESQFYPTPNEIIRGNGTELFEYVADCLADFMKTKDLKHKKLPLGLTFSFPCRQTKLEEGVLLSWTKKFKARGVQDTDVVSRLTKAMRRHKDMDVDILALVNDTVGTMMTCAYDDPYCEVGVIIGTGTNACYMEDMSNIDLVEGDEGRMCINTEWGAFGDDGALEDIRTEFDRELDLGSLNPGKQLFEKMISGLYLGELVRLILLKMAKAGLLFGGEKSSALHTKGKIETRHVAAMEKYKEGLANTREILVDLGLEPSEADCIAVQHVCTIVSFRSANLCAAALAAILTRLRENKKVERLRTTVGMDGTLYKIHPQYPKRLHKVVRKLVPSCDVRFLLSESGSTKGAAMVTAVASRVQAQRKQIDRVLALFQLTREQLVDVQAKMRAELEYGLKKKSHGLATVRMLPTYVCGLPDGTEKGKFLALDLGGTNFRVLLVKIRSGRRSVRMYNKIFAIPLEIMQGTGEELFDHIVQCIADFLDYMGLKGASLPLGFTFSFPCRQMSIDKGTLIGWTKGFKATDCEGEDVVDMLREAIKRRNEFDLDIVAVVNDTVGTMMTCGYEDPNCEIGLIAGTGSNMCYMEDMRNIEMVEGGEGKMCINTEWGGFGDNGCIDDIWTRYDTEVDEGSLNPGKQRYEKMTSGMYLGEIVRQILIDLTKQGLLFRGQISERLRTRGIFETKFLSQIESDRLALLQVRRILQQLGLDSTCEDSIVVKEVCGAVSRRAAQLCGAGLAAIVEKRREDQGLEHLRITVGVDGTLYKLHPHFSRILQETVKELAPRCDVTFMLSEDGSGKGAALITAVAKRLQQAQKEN
Nature of the experiment: HKDC1 hexokinase inhibitors, dose response, biochemical, W721R variant (AID 504729). Format: functional.

The target in experiment [1] is Induced myeloid leukemia cell differentiation protein Mcl-1 (Homo sapiens, UniProt Q07820). In kind it is functional.
The next experiment addresses Cytochrome P450 2D6 (Homo sapiens, UniProt P10635). Nature of the experiment: qHTS Assay for Inhibitors and Substrates of Cytochrome P450 2D6. [Related pubchem assays: 410 ]. Particulars: read-out: Potency. In kind it is ADME. A general note: Quantitative high-throughput screening tests each substance at several concentrations.
Another experiment deals with Cytochrome P450 3A4 (Homo sapiens, UniProt P08684). Particulars: Potency.
The target in experiment [2] is T2, Nucleotide-binding oligomerization domain-containing protein 2 (Homo sapiens, UniProt Q9HC29). Nature of the experiment: PubChem AID 2334. Format: functional.
Experiment [3] has as its system HEK293. Nature of the experiment: cells. Particulars: Homo sapiens.
Another experiment deals with Tumor necrosis factor (Homo sapiens, UniProt P01375). Nature of the experiment: TNFa-triggered NF-kB activation inhibitors, SAR follow-up, cell-based, revised (AID 2337). Format: functional.
Experiment [4] deals with T3, Nucleotide-binding oligomerization domain-containing protein 1 (Homo sapiens, UniProt Q9Y239).
T3 sequence (Q9Y239 whole entry): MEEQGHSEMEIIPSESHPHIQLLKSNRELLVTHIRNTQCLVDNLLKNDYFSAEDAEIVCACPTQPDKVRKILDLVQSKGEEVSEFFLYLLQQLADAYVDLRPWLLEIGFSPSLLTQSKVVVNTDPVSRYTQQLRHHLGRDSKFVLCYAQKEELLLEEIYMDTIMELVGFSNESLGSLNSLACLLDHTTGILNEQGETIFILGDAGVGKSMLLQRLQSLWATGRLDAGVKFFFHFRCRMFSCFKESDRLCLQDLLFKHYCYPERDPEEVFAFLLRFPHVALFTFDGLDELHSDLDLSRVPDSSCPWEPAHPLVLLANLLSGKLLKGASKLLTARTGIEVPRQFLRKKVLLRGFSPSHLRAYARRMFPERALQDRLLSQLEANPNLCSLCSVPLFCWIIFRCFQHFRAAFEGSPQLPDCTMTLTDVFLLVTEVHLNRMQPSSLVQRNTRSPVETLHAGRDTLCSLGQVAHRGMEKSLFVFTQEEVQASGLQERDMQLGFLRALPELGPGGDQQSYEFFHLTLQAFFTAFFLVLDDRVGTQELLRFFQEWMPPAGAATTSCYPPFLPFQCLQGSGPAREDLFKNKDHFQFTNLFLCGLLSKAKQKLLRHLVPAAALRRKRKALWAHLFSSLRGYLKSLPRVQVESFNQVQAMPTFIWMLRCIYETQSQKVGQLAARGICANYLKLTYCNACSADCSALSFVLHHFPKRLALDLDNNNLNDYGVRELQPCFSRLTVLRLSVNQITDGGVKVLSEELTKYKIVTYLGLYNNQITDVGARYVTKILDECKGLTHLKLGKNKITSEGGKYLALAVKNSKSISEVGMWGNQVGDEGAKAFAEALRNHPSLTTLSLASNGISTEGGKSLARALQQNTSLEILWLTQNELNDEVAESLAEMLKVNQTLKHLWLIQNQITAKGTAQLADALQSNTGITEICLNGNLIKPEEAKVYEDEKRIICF
Nature of the experiment: NOD1 signaling inhibitors, SAR follow-up, revised (AID 2333). In kind it is functional.

Experiment [5] deals with T4, Heat shock factor protein 1 (Mus musculus, UniProt P38532).
T4 sequence (P38532 whole entry): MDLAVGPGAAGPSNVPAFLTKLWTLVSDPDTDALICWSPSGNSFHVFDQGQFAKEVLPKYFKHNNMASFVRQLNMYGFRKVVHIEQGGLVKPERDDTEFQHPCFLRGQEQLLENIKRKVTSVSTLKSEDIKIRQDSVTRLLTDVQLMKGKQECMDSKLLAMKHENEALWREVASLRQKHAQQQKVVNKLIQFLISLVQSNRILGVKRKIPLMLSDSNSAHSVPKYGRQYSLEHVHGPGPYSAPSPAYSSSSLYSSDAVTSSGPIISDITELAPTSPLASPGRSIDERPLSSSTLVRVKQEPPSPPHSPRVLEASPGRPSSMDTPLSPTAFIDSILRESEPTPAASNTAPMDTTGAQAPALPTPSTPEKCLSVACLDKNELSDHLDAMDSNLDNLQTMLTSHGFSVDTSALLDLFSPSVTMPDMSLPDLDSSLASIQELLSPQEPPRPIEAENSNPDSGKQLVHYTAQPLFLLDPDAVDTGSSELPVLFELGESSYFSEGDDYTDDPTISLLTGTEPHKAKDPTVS
The experiment in a line: inhibition of MG132-induced HSE-luciferase signal, confirmation, cell-based, NIH3T3, luminescence, dose retest (AID 2382).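 Note: NIH3T3 fibroblasts with HSF1-driven luciferase reporter stressed by proteasome inhibitor MG132; luminescence from HSF1-driven luciferase expression after 8 hours of MG132 stress.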 In kind it is functional.

A further experiment concerns H9c2. The experiment in a line: cells. In kind it is functional, cell-based. Particulars: Rattus norvegicus, H9c2, Myocardium.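 Note: confirmatory concentration-response retest of ultra-high-throughput screening hits for modulation of myocardial damage; cell death induced by hydrogen peroxide oxidative stress; compound pretreatment for 60 min then peroxide exposure for 2 h; potency is for protecting the cells against peroxide damage rather than for killing them.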
In experiment [6] the target is T5, Carboxy-terminal domain RNA polymerase II polypeptide A small phosphatase 1 (Homo sapiens, UniProt Q9GZU7).
T5 sequence (Q9GZU7 whole entry): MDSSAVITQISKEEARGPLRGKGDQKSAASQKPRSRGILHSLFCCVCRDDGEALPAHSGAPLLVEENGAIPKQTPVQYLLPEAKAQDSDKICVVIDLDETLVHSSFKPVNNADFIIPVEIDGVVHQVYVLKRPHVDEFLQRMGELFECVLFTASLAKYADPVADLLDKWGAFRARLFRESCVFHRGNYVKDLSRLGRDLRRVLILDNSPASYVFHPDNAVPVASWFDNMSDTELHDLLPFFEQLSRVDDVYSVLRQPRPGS
The experiment in a line: inhibitors of CTDSP1, concentration-response testing, biochemical assay, absorbance-based, actives from ultra-high-throughput screening (AID 540297). In kind it is functional.

A further experiment concerns the target T6, Bcl-2-like protein 10 (Homo sapiens, UniProt Q9HD36).
T6 sequence (Q9HD36 whole entry): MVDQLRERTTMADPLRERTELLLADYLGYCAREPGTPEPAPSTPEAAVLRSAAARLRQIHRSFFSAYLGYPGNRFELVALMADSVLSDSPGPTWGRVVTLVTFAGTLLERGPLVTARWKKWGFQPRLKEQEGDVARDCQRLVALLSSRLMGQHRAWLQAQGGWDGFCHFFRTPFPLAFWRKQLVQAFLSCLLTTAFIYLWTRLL
The experiment in a line: displacers of TR3 peptide from Bcl-B, primary screen, selectivity assay for Bfl-1 inhibitor project, biochemical, fluorescence polarization, FITC-TR3 peptide (AID 748).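 Note: fluorescence polarization from a fluorescein-labelled TR3 peptide binding purified Bcl-B.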

Experiment [7] concerns the target T7, Estrogen receptor beta (Homo sapiens, UniProt Q92731). Nature of the experiment: ERβ–SRC-3 coactivator interaction inhibitors, confirmation, orthogonal assay, biochemical, ELISA, streptavidin-HRP readout (AID 1060). (In general: An ELISA detects its analyte on a solid surface through an enzyme-linked reagent.)
In experiment [8] the target is T7, Estrogen receptor beta.
The test system of experiment [9] is HEK293. Nature of the experiment: cells. Particulars: Homo sapiens. Format: functional, cell-based.
Experiment [10] concerns HEK293. Nature of the experiment: cells. Format: functional, cell-based. Particulars: Homo sapiens. This is another data set of the same source.
Experiment [11] relates to HEK293. Nature of the experiment: NOD2 signaling inhibitors in MDP-stimulated cells, cell-based, uHTS, luminescence (AID 2001). In kind it is functional. Particulars: Homo sapiens.
Experiment [12] has as its system HEK293. Nature of the experiment: cells. In kind it is functional, cell-based. Particulars: Homo sapiens. The source holds these as a separate data set.
A further experiment deals with Nonstructural protein 1 (Influenza A virus, UniProt Q194T2). Format: functional, Influenza A virus (A/California/07/2009(H1N1)).
Experiment [13] relates to HEK293. The experiment in a line: NOD1 signaling inhibitors, primary screen, cell-based, luminescence, uHTS (AID 1578). In kind it is functional. Particulars: Homo sapiens.
In experiment [14] the target is T2, Nucleotide-binding oligomerization domain-containing protein 2. The experiment in a line: NOD2 signaling inhibitors, cell-based, luminescence, uHTS, HEK293 (AID 1566). Format: functional.
The target in experiment [15] is Ras and Rab interactor 1/Tyrosine-protein kinase ABL1 (Homo sapiens, UniProt P00519+Q13671). In kind it is functional.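 Note: biochemical TR-FRET dose-response test measuring inhibition of binding between Rin1 and Abl proteins.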
Sequence of Ras and Rab interactor 1/Tyrosine-protein kinase ABL1 (P00519 whole entry): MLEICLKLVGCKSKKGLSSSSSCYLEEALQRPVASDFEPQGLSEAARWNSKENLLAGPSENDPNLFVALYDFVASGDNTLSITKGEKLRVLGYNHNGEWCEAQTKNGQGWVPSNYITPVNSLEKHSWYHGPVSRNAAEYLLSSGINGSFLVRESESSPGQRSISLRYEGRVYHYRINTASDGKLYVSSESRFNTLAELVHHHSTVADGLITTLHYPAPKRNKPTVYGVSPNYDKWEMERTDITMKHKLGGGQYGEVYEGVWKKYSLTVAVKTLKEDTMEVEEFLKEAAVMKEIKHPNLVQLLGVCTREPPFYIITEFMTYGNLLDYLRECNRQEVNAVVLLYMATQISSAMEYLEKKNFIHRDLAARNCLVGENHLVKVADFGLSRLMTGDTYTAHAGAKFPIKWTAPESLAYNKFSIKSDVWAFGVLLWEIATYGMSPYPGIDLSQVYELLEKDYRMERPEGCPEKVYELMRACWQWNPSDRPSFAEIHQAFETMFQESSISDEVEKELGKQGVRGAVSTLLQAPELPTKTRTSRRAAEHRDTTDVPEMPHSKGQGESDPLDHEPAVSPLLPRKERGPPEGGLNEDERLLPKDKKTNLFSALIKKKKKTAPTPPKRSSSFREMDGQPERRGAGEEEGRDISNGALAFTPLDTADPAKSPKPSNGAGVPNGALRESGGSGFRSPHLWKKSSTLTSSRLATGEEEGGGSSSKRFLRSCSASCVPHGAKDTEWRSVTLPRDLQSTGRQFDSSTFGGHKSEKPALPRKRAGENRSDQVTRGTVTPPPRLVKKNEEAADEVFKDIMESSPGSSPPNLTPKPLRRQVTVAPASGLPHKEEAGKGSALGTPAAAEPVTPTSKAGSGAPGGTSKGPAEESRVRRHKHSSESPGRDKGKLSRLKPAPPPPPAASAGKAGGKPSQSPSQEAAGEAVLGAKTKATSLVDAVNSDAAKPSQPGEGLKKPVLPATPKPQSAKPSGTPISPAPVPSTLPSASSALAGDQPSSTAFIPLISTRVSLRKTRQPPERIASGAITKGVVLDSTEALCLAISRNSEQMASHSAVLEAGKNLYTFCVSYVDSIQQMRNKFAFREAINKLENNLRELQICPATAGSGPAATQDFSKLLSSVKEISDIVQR
Sequence of Ras and Rab interactor 1/Tyrosine-protein kinase ABL1 (Q13671 whole entry): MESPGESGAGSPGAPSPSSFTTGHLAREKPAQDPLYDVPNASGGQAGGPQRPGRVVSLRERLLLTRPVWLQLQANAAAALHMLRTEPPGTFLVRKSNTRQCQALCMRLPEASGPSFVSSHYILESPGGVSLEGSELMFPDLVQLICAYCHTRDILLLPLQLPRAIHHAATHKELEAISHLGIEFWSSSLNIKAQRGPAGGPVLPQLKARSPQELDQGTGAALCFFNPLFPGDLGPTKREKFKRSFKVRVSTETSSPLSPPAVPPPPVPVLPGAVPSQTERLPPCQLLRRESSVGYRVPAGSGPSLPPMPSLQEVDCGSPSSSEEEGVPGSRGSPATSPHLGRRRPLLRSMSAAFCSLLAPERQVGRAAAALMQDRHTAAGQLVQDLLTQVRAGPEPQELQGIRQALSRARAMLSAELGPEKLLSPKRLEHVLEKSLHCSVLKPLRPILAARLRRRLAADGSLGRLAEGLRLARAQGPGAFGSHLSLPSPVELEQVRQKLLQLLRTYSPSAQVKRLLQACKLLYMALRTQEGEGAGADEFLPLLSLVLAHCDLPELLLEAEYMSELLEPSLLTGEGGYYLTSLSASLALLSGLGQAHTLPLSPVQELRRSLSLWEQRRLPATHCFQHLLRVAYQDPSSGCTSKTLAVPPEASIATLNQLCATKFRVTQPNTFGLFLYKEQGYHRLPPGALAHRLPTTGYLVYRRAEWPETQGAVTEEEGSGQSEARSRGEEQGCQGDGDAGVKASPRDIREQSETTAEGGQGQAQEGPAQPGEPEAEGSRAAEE

T7 sequence (Q92731 whole entry): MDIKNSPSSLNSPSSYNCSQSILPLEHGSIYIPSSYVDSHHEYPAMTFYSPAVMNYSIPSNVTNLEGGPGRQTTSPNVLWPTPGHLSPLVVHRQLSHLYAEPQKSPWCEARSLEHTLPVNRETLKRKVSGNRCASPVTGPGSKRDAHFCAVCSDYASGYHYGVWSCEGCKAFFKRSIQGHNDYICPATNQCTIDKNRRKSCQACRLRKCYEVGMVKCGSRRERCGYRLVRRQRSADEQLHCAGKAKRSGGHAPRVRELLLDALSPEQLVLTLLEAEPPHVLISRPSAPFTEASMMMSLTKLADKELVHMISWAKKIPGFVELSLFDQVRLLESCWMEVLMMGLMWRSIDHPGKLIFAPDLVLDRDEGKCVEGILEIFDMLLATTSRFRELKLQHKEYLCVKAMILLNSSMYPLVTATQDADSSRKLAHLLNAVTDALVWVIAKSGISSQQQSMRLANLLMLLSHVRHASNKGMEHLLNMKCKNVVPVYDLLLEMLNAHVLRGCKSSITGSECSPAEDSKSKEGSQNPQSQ
T2 sequence (Q9HC29 whole entry, the tested form may be a part): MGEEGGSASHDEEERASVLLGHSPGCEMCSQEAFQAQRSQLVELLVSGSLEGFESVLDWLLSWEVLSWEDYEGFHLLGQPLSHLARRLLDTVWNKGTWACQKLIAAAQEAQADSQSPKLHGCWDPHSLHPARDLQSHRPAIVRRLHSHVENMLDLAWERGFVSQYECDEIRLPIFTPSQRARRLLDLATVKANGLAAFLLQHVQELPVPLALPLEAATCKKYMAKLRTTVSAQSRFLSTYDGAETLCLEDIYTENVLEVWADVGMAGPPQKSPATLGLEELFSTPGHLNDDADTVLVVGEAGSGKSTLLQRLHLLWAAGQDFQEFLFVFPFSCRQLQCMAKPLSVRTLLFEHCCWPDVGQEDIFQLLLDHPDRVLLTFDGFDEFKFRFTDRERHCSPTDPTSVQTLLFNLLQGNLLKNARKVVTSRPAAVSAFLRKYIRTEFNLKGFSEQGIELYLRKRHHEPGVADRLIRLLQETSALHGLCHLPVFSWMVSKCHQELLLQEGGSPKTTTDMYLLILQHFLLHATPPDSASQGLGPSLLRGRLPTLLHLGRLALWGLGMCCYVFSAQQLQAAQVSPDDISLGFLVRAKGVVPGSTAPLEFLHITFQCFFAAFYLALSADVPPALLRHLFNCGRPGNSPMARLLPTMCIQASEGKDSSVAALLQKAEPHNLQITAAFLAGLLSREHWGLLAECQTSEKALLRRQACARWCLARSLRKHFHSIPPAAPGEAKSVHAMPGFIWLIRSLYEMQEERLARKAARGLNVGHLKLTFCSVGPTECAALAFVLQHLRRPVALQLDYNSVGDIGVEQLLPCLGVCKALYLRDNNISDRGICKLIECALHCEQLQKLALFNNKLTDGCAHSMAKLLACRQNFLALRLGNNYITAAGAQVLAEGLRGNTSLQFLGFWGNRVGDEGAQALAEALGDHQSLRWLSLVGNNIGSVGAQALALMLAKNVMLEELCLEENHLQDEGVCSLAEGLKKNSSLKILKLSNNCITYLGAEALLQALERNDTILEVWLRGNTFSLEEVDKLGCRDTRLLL
Sequence of Tumor necrosis factor (P01375 whole entry, the tested form may be a part): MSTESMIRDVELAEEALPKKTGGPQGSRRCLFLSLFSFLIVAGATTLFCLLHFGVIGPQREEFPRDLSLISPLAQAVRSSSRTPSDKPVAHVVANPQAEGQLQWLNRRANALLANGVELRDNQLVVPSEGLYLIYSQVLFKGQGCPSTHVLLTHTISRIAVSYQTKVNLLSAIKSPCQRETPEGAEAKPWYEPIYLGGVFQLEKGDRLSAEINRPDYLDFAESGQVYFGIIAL
Sequence of Cytochrome P450 2D6 (P10635 whole entry): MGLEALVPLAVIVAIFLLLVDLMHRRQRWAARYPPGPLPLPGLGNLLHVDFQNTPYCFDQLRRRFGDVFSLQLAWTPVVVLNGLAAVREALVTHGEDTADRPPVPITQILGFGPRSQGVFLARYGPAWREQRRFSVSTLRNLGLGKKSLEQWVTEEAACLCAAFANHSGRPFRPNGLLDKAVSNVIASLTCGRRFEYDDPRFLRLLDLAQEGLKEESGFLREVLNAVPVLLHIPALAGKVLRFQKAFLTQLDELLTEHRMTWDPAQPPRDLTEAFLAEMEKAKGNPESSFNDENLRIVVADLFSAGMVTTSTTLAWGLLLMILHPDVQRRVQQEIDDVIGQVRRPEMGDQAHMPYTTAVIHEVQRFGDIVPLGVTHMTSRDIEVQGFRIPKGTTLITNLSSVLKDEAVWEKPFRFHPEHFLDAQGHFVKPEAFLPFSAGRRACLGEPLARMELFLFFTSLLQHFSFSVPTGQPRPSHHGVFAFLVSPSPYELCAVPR
Sequence of Induced myeloid leukemia cell differentiation protein Mcl-1 (Q07820 whole entry): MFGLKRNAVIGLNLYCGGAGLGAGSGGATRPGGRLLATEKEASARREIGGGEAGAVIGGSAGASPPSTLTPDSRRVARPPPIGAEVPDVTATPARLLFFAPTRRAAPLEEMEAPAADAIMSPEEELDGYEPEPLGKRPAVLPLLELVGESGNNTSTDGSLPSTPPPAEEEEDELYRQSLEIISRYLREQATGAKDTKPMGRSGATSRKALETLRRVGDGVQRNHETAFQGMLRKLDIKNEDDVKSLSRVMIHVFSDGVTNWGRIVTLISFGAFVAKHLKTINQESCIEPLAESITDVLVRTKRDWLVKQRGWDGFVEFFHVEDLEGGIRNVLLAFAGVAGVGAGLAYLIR
Sequence of Nonstructural protein 1 (Q194T2 whole entry): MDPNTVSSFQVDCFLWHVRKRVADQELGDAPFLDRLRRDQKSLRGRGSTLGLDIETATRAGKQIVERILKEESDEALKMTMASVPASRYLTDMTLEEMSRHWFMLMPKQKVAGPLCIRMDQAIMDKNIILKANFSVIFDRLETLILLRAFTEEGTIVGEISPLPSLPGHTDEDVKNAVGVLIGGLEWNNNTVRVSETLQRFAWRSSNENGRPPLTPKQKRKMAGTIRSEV

Usually IC50 stands for the midpoint of a concentration-inhibition curve. Turning to `CCn1cc(C(=O)NCc2ccc3c(c2)OCO3)c2cc(OC)c(OC)cc2c1=O`, the IC50 at Hexokinase HKDC1 is 17.2 µM (active); in experiment [1] it was 7.31 µM (not active).

As for `CC(C)CN1CCc2nc(-c3ccccc3)c3c(c2C1)COC(C)C3` (stereo not given), the AC50 at Cytochrome P450 2D6 and at Cytochrome P450 3A4 was 3.16 µM (inconclusive) each time.

Take `O=C(Nc1ccc(Cl)cc1)c1ccc(CCN2CCc3ccccc3C2)cc1`: the IC50 (in [2]; in the experiment with HEK293 [3]; on Tumor necrosis factor; in experiment [4]) was > 20 µM (inactive) throughout.

A word on the EC50: it is the concentration at which the effect is half-maximal. Take `CCOc1ccccc1Nc1nnc(SCc2nnc(-c3cc(OC)c(OC)c(OC)c3)o2)s1`: the results for the IC50 at Hexokinase HKDC1 and in the experiment with H9c2 were 18.8 µM (active) and > 79 µM (inactive), respectively. The EC50 in experiment [5] was 21.7 µM (active).

Regarding `O=C(c1cc2c(s1)CCC2)N1CCN(c2ccccc2)CC1`, the IC50 in experiment [6] was 22.4 µM (active); at Bcl-2-like protein 10, 36.3 µM (active); at Estrogen receptor beta [7], > 50 µM (not active); at Estrogen receptor beta [8] it was 3.87 µM (active).

For the molecule `Cc1cc(C(=O)NC2CCCc3c2cnn3-c2ccccc2F)n(C)n1` (stereo not given), the IC50 in [2] is > 20 µM (inactive); in the experiment with HEK293 [3] it was > 20 µM (inactive); at Tumor necrosis factor it was > 20 µM (inactive); in experiment [4], 0.146 µM (active).

On to `N#CC(c1ccccc1)c1ccc2c(C(F)(F)F)cc(C(F)(F)F)nc2n1` (stereo not given), for which the IC50 in experiment [2] is 3.99 µM (active); in the experiment on HEK293 [3] it was > 20 µM (inactive); in the experiment on HEK293 [9], 15.4 µM (active); in the experiment with HEK293 [10], > 20 µM (inactive); at Tumor necrosis factor it was 5.88 µM (active); with HEK293 [11], > 20 µM (inactive). Besides, the concentration for half-maximal inhibition (IC50) in [4] was 3.71 µM (active); with HEK293 [12], > 20 µM (inactive); at Nonstructural protein 1, 21.3 µM (active). Besides, the EC50 with HEK293 [13] was 4.36 µM (active); in experiment [14] it was 13.4 µM (active).

For `COc1ccc2cc(CCNC(=O)c3ccc(S(=O)(=O)N4CCCC4)cc3)c(O)nc2c1`, on Hexokinase HKDC1, the IC50 was 7.58 µM (active).

For `Cc1ccc(-n2c(SCc3cc(=O)n4ccsc4n3)nnc2-c2cccnc2)c(C)c1`, the IC50 in experiment [15] was 19.6 µM (inactive); on Bcl-2-like protein 10 it was > 100 µM (inactive); on Estrogen receptor beta [7], 0.721 µM (not active); on Estrogen receptor beta [8] it was > 50 µM (not active).
